Here are results for seven compounds from ChEMBL document CHEMBL3352667, “Anti-tumor activity of novel biisoquinoline derivatives against breast cancers” (Bioorg Med Chem Lett, 2014).

Each structure is given as a SMILES string. Calls of active or inactive are those of the source. The calls are words filed in the database; no cut-off is given here.

Holding throughout (assay type): functional, cell-based
The test system of test [1] is MDA-MB-468. In words: Cytotoxicity against human MDA-MB-468 cells assessed as growth inhibition after 48 hrs by methylene blue staining-based assay. The settings on record: MDA-MB-468, 48 h.
For test [2], the system named is MCF7. In words: Cytotoxicity against human MCF7 cells assessed as growth inhibition after 48 hrs by methylene blue staining-based assay. The settings on record: MCF7, 48 h.
Test [3] deals with T47D. In words: Cytotoxicity against human T47D cells assessed as growth inhibition after 48 hrs by methylene blue staining-based assay.
For test [4], the system named is BT-474. In words: Cytotoxicity against human BT474 cells assessed as growth inhibition after 48 hrs by methylene blue staining-based assay. The settings on record: BT-474, 48 h.
Test [5] has as its system MDA-MB-231. As to the kind of experiment: Cytotoxicity against human MDA-MB-231 cells assessed as growth inhibition after 48 hrs by methylene blue staining-based assay. The settings on record: for IC50: MDA-MB-231, 48 h.

Usually IC50 stands for the concentration at which inhibition is half-maximal. With `COc1ccc2c(c1OC)CCn1c[n+]3c(c1-2)-c1ccc(OC)c(OC)c1CC3`, the IC50 is 2.1 µM in test [1]; 7.9 µM in test [2]; 13.5 µM in test [3]; 0.7 µM in test [4]; 18.2 µM in test [5].

As for `COc1ccc2c(c1)CCn1c[n+]3c(c1-2)-c1ccc(OC)cc1CC3`, the IC50 was determined as 1.8 µM in test [1]; 1.3 µM in test [2]; 1 µM in test [3]; 0.3 µM in test [4]; 3.9 µM in test [5].

In the case of `COc1ccc2c(c1OC)C(=O)O[C@@H]2[C@H]1c2c(cc3c(c2OC)OCO3)CCN1C` [NOSCAPINE], the IC50 stood at 57 µM in test [2] and 64 µM in test [5].

Turning to `COc1cc2c(cc1OC)C(C1=NCCc3cc(OC)c(OC)cc31)=NCC2`, the result in test [5] was inactive.

`COc1cc2c(cc1OC)-c1c3[n+](cn1CC2)CCc1cc(OC)c(OC)cc1-3`: the IC50 in test [1] is 2.6 µM; in test [2], 35 µM; in test [3] it was 34 µM; in test [4], 3.1 µM; in test [5], 19 µM.

As for `COc1ccc(CCNC(=O)C(=O)NCCc2ccc(OC)c(OC)c2)cc1OC`, the concentration for half-maximal inhibition (IC50) in test [5] turned out to be 45 µM.

Regarding `COc1cc2c(c(OC)c1OC)CCn1c[n+]3c(c1-2)-c1cc(OC)c(OC)c(OC)c1CC3`, in test [5], the result was inactive.
